# Patent EP4818168A1, “FUSED RING COMPOUND, PHARMACEUTICAL COMPOSITION THEREOF AND USE THEREOF” (priority 2023, dated 2025)
# Read-outs that look alike come from different tables or passages of the source.
# Tests used:
# [1] = test system: H82 cells; experiment: cells; assay type: cell-based; conditions: Homo sapiens
# In short: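 H82 cells in RPMI1640 + 10% FBS exposed to compound (0.1% DMSO final) for 6 days at 37 °C, 5% CO2. Viability read by CellTiter-Glo ATP luminescence, normalised to DMSO and medium controls; IC50 from nonlinear regression of the dose–survival curve.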
# [2] = biological target: T1, AURKA (Homo sapiens, UniProt O14965); assay type: cell-based
# T1 construct: endogenous in cells; host or cells: Jurkat cells
# T1 sequence (O14965 1-403): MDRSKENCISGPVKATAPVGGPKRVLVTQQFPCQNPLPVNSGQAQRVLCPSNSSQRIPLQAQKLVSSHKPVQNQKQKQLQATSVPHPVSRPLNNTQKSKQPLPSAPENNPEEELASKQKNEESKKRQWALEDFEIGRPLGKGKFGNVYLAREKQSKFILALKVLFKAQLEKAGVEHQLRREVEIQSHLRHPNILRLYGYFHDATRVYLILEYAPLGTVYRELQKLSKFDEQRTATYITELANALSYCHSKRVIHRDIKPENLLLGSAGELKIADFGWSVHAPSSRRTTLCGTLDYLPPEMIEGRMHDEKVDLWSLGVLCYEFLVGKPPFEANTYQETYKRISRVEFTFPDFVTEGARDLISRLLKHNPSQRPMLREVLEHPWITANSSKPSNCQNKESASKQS
# In short: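 Jurkat cells seeded at 1×10^6 cells/500 µL and treated with compound; lysates run on SDS-PAGE, blotted to nitrocellulose and probed overnight at 4°C for AURKA. Chemiluminescent or fluorescent band intensity fitted to a curve to give DC50 for protein degradation.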
# [3] = NCI-H82, H82 cells, 4000 cells/well, CellTiter-Glo, read-out: IC50 in H82 Cells
# [4] = 100 nM compound, Jurkat cells, 24 h, Table 2
# [5] = 1 µM compound, Jurkat cells, 24 h, Table 2
# [6] = NCI-H82, read-out: IC50 in H82 Cells
SMILES,"IC50 [1, 3] [µM]","Percentage of AURKA Degradation Induced by 100 nM Compound in Jurkat Cells [2, 4]","Percentage of AURKA Degradation Induced by 1 µM Compound in Jurkat Cells [2, 5]","IC50 [1, 6] [µM]",Percentage of AURKA Degradation Induced by 100 nM Compound in Jurkat Cells [2],Percentage of AURKA Degradation Induced by 1 µM Compound in Jurkat Cells [2]
O=C1CCN(c2ccc(N3CCOC(CN4CCN(C56CC(Nc7ncc8c(n7)-c7ccc(Cl)cc7C(c7c(F)cccc7F)=NC8)(C5)C6)C(=O)C4)C3)nc2)C(=O)N1 (stereo not drawn) [Compound A311],< 1,+++ (Degradation > 70%),+++ (Degradation > 70%),–,–,–
CC1(C)CN(C23CC(Nc4ncc5c(n4)-c4ccc(Cl)cc4C(c4c(F)cccc4F)=NC5)(C2)C3)C(=O)CN1CC1CCN(c2ccc(N3CCC(=O)NC3=O)cn2)CC1 [Compound A316],–,–,–,< 1,++ (key: +: Degradation ≤ 30%; ++: 30% < Degradation ≤ 70%; +++: Degradation > 70%),++ (key: +: Degradation ≤ 30%; ++: 30% < Degradation ≤ 70%; +++: Degradation > 70%)
N#Cc1ccc2c(c1)C(c1c(F)cccc1F)=NCc1cnc(Nc3ccc(N4CC(F)(CN5CCN(c6ccc(N7CCC(=O)NC7=O)cn6)CC5)C4)cc3)nc1-2 [Compound A319],< 1,+++ (Degradation > 70%),+++ (Degradation > 70%),–,–,–
O=C1CCN(c2ccc(N3CCC(C(=O)N4CCN(c5ccc(Nc6ncc7c(n6)-c6ccc(Cl)cc6C(c6nccs6)=NC7)cc5)CC4)CC3)nc2)C(=O)N1 [Compound A320],< 1,+++ (Degradation > 70%),+++ (Degradation > 70%),–,–,–
N#Cc1ccc2c(c1)C(c1nccs1)=NCc1cnc(Nc3ccc(N4CCN(C5CCN(c6ccc(N7CCC(=O)NC7=O)cn6)CC5)CC4=O)cc3)nc1-2 [Compound A322],< 1,+++ (Degradation > 70%),+++ (Degradation > 70%),–,–,–
N#Cc1nc(N2CCN(C(=O)C3CCN(c4ccc(Nc5ncc6c(n5)-c5ccc(Cl)cc5C(c5c(F)cccc5F)=NC6)cc4)CC3)CC2)ccc1N1CCC(=O)NC1=O [Compound A323],< 1,+++ (Degradation > 70%),+++ (Degradation > 70%),–,–,–
O=C1CCN(c2ccc(N3CCN(C(=O)[C@@H]4CN(c5ccc(Nc6ncc7c(n6)-c6ccc(Cl)cc6C(c6c(F)cccc6F)=NC7)cc5)CCO4)CC3)nc2)C(=O)N1 [Compound A324],< 1,+++ (Degradation > 70%),+++ (Degradation > 70%),–,–,–
O=C1CCN(c2ccc(N3CCN(C(=O)[C@H]4CN(c5ccc(Nc6ncc7c(n6)-c6ccc(Cl)cc6C(c6c(F)cccc6F)=NC7)cc5)CCO4)CC3)nc2)C(=O)N1 [Compound A325],< 1,+++ (Degradation > 70%),+++ (Degradation > 70%),–,–,–
N#Cc1cc(N2CCC(=O)NC2=O)cnc1N1CCN(C(=O)C2CCN(c3ccc(Nc4ncc5c(n4)-c4ccc(Cl)cc4C(c4c(F)cccc4F)=NC5)cc3)CC2)CC1 [Compound A326],< 1,+++ (Degradation > 70%),+++ (Degradation > 70%),–,–,–
O=C1CCN(c2ccc(N3CC4(CC(N5CCN(c6ccc(Nc7ncc8c(n7)-c7ccc(Cl)cc7C(c7c(F)cccc7F)=NC8)cc6)C(=O)C5)CO4)C3)nc2)C(=O)N1 (stereo not drawn) [Compound A329],< 1,+++ (Degradation > 70%),+++ (Degradation > 70%),–,–,–
O=C1CCN(c2ccc(N3CC4(CC(N5CCN(c6ccc(Nc7ncc8c(n7)-c7ccc(Cl)cc7C(c7nccs7)=NC8)cc6)C(=O)C5)CO4)C3)nc2)C(=O)N1 (stereo not drawn) [Compound A330],< 1,+++ (Degradation > 70%),+++ (Degradation > 70%),–,–,–
NC(=O)c1cc(N2CCN(C(=O)C3CCN(c4ccc(Nc5ncc6c(n5)-c5ccc(Cl)cc5C(c5c(F)cccc5F)=NC6)cc4)CC3)CC2)ncc1N1CCC(=O)NC1=O [Compound A334],< 1,+ (Degradation ≤ 30%),+ (Degradation ≤ 30%),–,–,–
O=C1CCN(c2ccc(N3CCC4(CC3)CC(N3CCN(c5ccc(Nc6ncc7c(n6)-c6ccc(Cl)cc6C(c6c(F)cccc6F)=NC7)cc5)C(=O)C3)CO4)nc2)C(=O)N1 (stereo not drawn) [Compound A336],< 1,+++ (Degradation > 70%),+++ (Degradation > 70%),–,–,–
O=C1CCN(c2ccc(N3CCC4(CC3)CC(N3CCN(c5ccc(Nc6ncc7c(n6)-c6ccc(Cl)cc6C(c6nccs6)=NC7)cc5)C(=O)C3)CO4)nc2)C(=O)N1 (stereo not drawn) [Compound A337],< 1,+++ (Degradation > 70%),+++ (Degradation > 70%),–,–,–
O=C1CCN(c2ccc(N3CCC4(CC3)CC(N3CCN(C56CC(Nc7ncc8c(n7)-c7ccc(Cl)cc7C(c7nccs7)=NC8)(C5)C6)C(=O)C3)CO4)nc2)C(=O)N1 (stereo not drawn) [Compound A339],< 1,+++ (Degradation > 70%),+++ (Degradation > 70%),–,–,–
O=C1CCN(c2ccc(N3CCC4(CC3)C[C@@H](N3CCN(c5ccc(Nc6ncc7c(n6)-c6ccc(Cl)cc6C(c6c(F)cccc6F)=NC7)cc5)CC3)CO4)nc2)C(=O)N1 [Compound A341],–,+++ (Degradation > 70%),+++ (Degradation > 70%),< 1,–,–
O=C1CCN(c2ccc(N3CCC4(CC3)C[C@H](N3CCN(c5ccc(Nc6ncc7c(n6)-c6ccc(Cl)cc6C(c6c(F)cccc6F)=NC7)cc5)CC3)CO4)nc2)C(=O)N1 [Compound A342],–,+++ (Degradation > 70%),+++ (Degradation > 70%),< 1,–,–
O=C1CCN(c2ccc(N3CCOC(C(=O)N4CCN(c5ccc(Nc6ncc7c(n6)-c6ccc(Cl)cc6C(c6nccs6)=NC7)cc5)CC4)C3)nc2)C(=O)N1 (stereo not drawn) [Compound A343],< 1,+++ (Degradation > 70%),+++ (Degradation > 70%),–,–,–
O=C1CCN(c2ccc(N3CCC4(CC3)CC(N3CCN(c5ccc(Nc6ncc7c(n6)-c6ccc(Cl)cc6C(c6nccs6)=NC7)cc5)CC3)CO4)nc2)C(=O)N1 (stereo not drawn) [Compound A345],< 1,+++ (Degradation > 70%),+++ (Degradation > 70%),–,–,–
O=C1CCN(c2ccc(N3CCC4(CC3)CN(C3CCN(c5ccc(Nc6ncc7c(n6)-c6ccc(Cl)cc6C(c6c(F)cccc6F)=NC7)cc5)CC3)CCO4)nc2)C(=O)N1 [Compound A346],–,–,–,< 1,+++ (key: +: Degradation ≤ 30%; ++: 30% < Degradation ≤ 70%; +++: Degradation > 70%),+++ (key: +: Degradation ≤ 30%; ++: 30% < Degradation ≤ 70%; +++: Degradation > 70%)
O=C1CCN(c2ccc(N3CCC4(CC3)CN(C3CCN(c5cccc(Nc6ncc7c(n6)-c6ccc(Cl)cc6C(c6c(F)cccc6F)=NC7)c5)CC3)CCO4)nc2)C(=O)N1 [Compound A347],–,–,–,< 1,+++ (key: +: Degradation ≤ 30%; ++: 30% < Degradation ≤ 70%; +++: Degradation > 70%),+++ (key: +: Degradation ≤ 30%; ++: 30% < Degradation ≤ 70%; +++: Degradation > 70%)
O=C1CCN(c2ccc(N3CCC(N4CCC(c5ccc(Nc6ncc7c(n6)-c6ccc(Cl)cc6C(c6c(F)cccc6F)=NC7)cc5)C(F)(F)C4)CC3)nc2)C(=O)N1 (stereo not drawn) [Compound A350],–,+++ (Degradation > 70%),+++ (Degradation > 70%),< 1,–,–
O=C1CCN(c2ccc(N3CCC4(CC3)CC(N3CCC(c5ccc(Nc6ncc7c(n6)-c6ccc(Cl)cc6C(c6c(F)cccc6F)=NC7)cc5)C(F)(F)C3)CO4)nc2)C(=O)N1 (stereo not drawn) [Compound A351],< 1,+++ (Degradation > 70%),+++ (Degradation > 70%),–,–,–
O=C1CCN(c2ccc(N3CCC4(CC3)CN(C3CN(c5ccc(Nc6ncc7c(n6)-c6ccc(Cl)cc6C(c6c(F)cccc6F)=NC7)cc5)C3)CCO4)nc2)C(=O)N1 [Compound A352],–,+++ (Degradation > 70%),+++ (Degradation > 70%),< 1,–,–
